Common to all, as to test: NCI tumour cell line growth inhibition, 48 h
The test system of test [1] is SF-539 CNS.
In test [2] the test system is COLO 205 colon.
Test [3] deals with SN12C renal.
Test [4] concerns 786-0 renal.
The test system of test [5] is SK-MEL-2 melanoma.
In test [6] the test system is MDA-MB-435.
The test system of test [7] is KM12 colon.
Test [8] deals with UACC-257 melanoma.
Test [9] relates to CAKI-1 renal.
The subject of test [10] is IGROV1 ovarian.

“And” between values parts separate entries of the source, which are not always exact repeats. Identical values can stand only once.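 96-well plates; 48 h exposure; 5 concentrations. Endpoints by linear interpolation between flanking doses. Not reached: highest tested concentration assigned. GI50 marks 50% less growth. The concentration for full growth arrest is given as TGI.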

For the molecule `COc1cc2c(/C=C3/C(=O)Nc4cccc(Cl)c43)c(Cl)n(Cc3ccccc3)c2cc1C`, the GI50 was 3.78 µM in test [1]; 2.94 µM in test [2]; 6.18 µM in test [3]; 3.59 µM in [4]; 11 µM in [5]; 1.11 µM in test [6]. Further, the GI50 in test [7] was 2.46 µM; in test [8], 10.4 µM; in test [9], 2.46 µM; in test [10], 7.42 µM. The TGI is over 100 µM in test [1]; 21.8 µM in [2]; over 35 µM in test [3]; 26.7 µM in test [4]; 68.2 µM in test [5]; 5.82 µM in [6]. Also, the TGI in test [7] was 17.9 µM; in [8], over 78.8 µM; in test [9], 31.4 µM; in test [10], over 100 µM.
Take `CCCCNC(=O)NS(=O)(=O)c1ccc(N2N=C(c3ccc(C)cc3C)CC2c2ccc(N(C)C)cc2)cc1` (stereo unspecified): the GI50 is 3.22 µM in test [1]; 3.19 µM in [2]; 3.07 µM in [3]; 5.45 µM in test [4]; 3.13 µM in [5]; 2.55 µM in test [6]. In addition, the GI50 was 3.72 µM in [7], 4.04 µM in test [8], 3.38 µM in test [9] and 4.87 µM in [10]. For the same molecule, the TGI in [1] is 14 µM; in [2] it was 7.56 µM; in test [3], 89.5 µM; in test [4], over 100 µM; in test [5] it was 8.46 µM; in test [6], 7.59 µM. The TGI in test [7], in [8], in [9] and in test [10] was over 100 µM each time.
On to `NC(N)=NC(N)=Nc1cc2ccccc2c2ccccc12`, for which the GI50 is 10.6 µM in test [1]; 1.84 µM in test [2]; 5.3 µM in [3]; 7.23 µM in [4]; 13.6 µM in [5]; 12.4 µM in test [6]. In addition, the GI50 in test [7] was 12.3 µM; in test [8], 10.5 µM; in test [10], 4.04 µM. Further, the TGI in [1] came to 23.5 µM; in [2] it was 4.49 µM; in test [3] it was 19.9 µM; in test [4], 22.5 µM; in test [5], 30.5 µM; in [6] it was 25.4 µM. The values for the TGI in test [7], in test [8] and in test [10] were 27.2 µM, 22.9 µM and 19.1 µM, respectively.
For `CCCCCCCCCCC(O)C1CCC(C2CCC(C(O)CCCCC(O)CCCCCC(O)CC3=CC(C)OC3=O)O2)O1` (stereo unspecified), the TGI in test [1] was over 25 µM; in [2] it was 9.15 µM and > 25 µM; in [3] it was over 25 µM; in [4], over 25 µM; in [5], over 25 µM; in test [6] it was 9.96 µM and > 25 µM. The TGI in [7], in test [8] and in test [9] was over 25 µM in each case. The GI50 in test [2] is 3.09 µM; in test [3], over 25 µM; in test [4], 3.53 µM; in test [5], 3.62 µM; in [6], 1.51 µM; in test [7], over 25 µM. Moreover, the GI50 in test [8] was 0.452 µM.
As for `COc1ccc(S(=O)(=O)N(Cc2ccc3c(n2)C=CC(C)(C)O3)C2CCC2)cc1OC`, the GI50 in test [1], in test [2], in test [3], in [4], in test [6] and in [7] was under 0.01 µM throughout. Also, the results for the GI50 in test [8], in test [9] and in test [10] were under 0.0105 µM, under 0.01 µM and under 0.01 µM, respectively. Besides, the TGI in test [1] is 0.378 µM; in test [2], 0.0537 µM; in test [3], 0.161 µM; in test [4] it was 0.374 µM; in test [6], 0.422 µM; in [7], over 37.7 µM. In addition, the TGI was determined as 0.239 µM in [8], 0.145 µM in test [9] and 0.262 µM in [10].
In the case of `CCCCn1c(-c2ccc(C(=O)O/N=C(\N)c3ccc(OC)cc3)cc2)nc(-c2ccccc2)c1-c1ccccc1`, the GI50 in test [1] is 1.67 µM; in [3] it was 1.84 µM; in [4] it was 0.538 µM; in test [5], 2.75 µM; in [6], 1.74 µM; in [7] it was 2.91 µM. Further, the values for the GI50 in test [8], in test [9] and in test [10] were 3.61 µM, 1.29 µM and 0.334 µM, respectively. Moreover, the TGI in [1] is 3.24 µM; in test [3] it was 4.46 µM; in test [4], 1.91 µM; in [5], 8.36 µM; in test [6], 3.28 µM; in [7] it was over 100 µM. The TGI is over 100 µM in test [8], 2.71 µM in [9] and 1.16 µM in test [10].
Consider `CC[C@H](C)[C@H](NC(=O)[C@H]1CCCCN1C)C(=O)N(C)[C@H](CCc1nc(C(=O)N[C@@H](Cc2ccccc2)C[C@H](C)C(=O)OC)cs1)C(C)C`, for which the GI50 in test [1] was 0.464 µM; in test [2], 0.167 µM; in [3], 0.773 µM; in test [4] it was 0.432 µM; in [5] it was 0.104 µM; in test [6], 0.0363 µM. For the same molecule, the GI50 in test [7] is 0.261 µM; in [8], 4.43 µM; in test [10], 0.316 µM. The TGI is 1.53 µM in test [1]; 0.916 µM in test [2]; over 25 µM in test [3]; over 11.6 µM in [4]; 15.9 µM in test [5]; 0.185 µM in [6]. Besides, the TGI in test [7], in test [8] and in [10] was over 25 µM each time.
With `COc1cc2c3c(n(CCCCl)c(=O)c2cc1OC)-c1ccccc1C3=O`, the GI50 in test [1] was 14.1 µM; in test [3], over 100 µM; in test [4], 12.3 µM; in test [5], over 100 µM; in test [6], over 100 µM; in [7], over 100 µM. The GI50 in test [8] is 10.2 µM; in [9], 1.44 µM. Moreover, the TGI in [1], in test [3], in test [4], in test [5], in [6] and in test [7] was over 100 µM each time. The TGI was over 100 µM in [8] and 7.6 µM in [9].
For `Cc1cc(C)cc(Nc2cc(C)nc3nc(C(F)(F)F)nn23)c1`, the GI50 in [1] was 38.9 µM; in [2] it was over 100 µM; in [3], over 100 µM; in test [4] it was 37.6 µM; in test [5], over 100 µM; in test [6] it was over 100 µM. The GI50 in test [7], in test [9] and in [10] was over 100 µM in each case. The TGI in [1], in [2], in test [3], in test [4], in [5] and in test [6] was over 100 µM throughout. Also, the TGI in test [7], in [9] and in [10] was over 100 µM each time.
For `COc1cccc(N=Cc2c3ccccc3c(=O)n3c2oc2ccccc23)c1`, the GI50 in [1] is 16.3 µM; in test [2], 34.5 µM; in test [3], 2.22 µM; in test [4], 14 µM; in [5], over 100 µM; in test [6], 7.27 µM. Further, the GI50 in [7] is 3.78 µM; in test [9], 2.92 µM; in test [10], 5.86 µM. For the same molecule, the TGI in [1] is 95.3 µM; in test [2] it was over 100 µM; in test [3], 23.5 µM; in test [4] it was over 100 µM; in test [5], over 100 µM; in test [6] it was 46.4 µM. In addition, the TGI in test [7] was 42.8 µM; in [9], 11.5 µM; in test [10] it was over 100 µM.
As to `Cc1c2c(nn1-c1ccc(S(=O)(=O)/N=C3\SCC(=O)N3C(=O)c3ccccc3)cc1)-c1ccccc1CC2`, the GI50 was 19.2 µM in test [3]; 28.9 µM in test [4]; over 100 µM in test [5]; 26.1 µM in test [6]; 51.4 µM in test [7]; 92.5 µM in [8]. For the same molecule, the GI50 in test [9] was 26.6 µM; in [10], over 100 µM. Besides, the TGI was 45.8 µM in [3]; 77.9 µM in test [4]; over 100 µM in [5]; 60.8 µM in [6]; over 100 µM in [7]; over 100 µM in test [8]. For the same molecule, the TGI is 65.9 µM in test [9] and over 100 µM in [10].
As for `COc1ccc2cc(C(=O)/C=C/c3cccc(OC)c3OC)ccc2c1`, the GI50 in test [1] is 11.1 µM; in test [2], 20.4 µM; in [3] it was 3.83 µM; in test [4] it was 4.26 µM; in test [5], 21.3 µM; in test [6], 5.16 µM. Also, the GI50 in [7] was 13 µM; in [8] it was 15 µM; in test [9], 11.6 µM. Also, the TGI is 26.1 µM in [1]; 78.5 µM in [2]; 14 µM in test [3]; 16.6 µM in [4]; 40.3 µM in test [5]; 29.7 µM in test [6]. Moreover, the TGI in test [7] came out at 33.1 µM; in test [8], 29.8 µM; in test [9] it was 31.9 µM.
Consider `COc1cc(C(=O)O[C@H](C(N)=O)[C@]2(C)CO2)c2ccccc2c1`, for which the GI50 in test [1] was 2.41 µM; in [2] it was 16.6 µM; in [4], 5.08 µM; in test [5] it was 17.2 µM; in test [6] it was 23.7 µM; in [7], 15.6 µM. Moreover, the GI50 in [8] was 31.8 µM; in [9], 20.6 µM; in test [10], 34.6 µM. Further, the TGI in test [1] was 7.55 µM; in test [2], 39.7 µM; in test [4], 17.3 µM; in test [5], 42.7 µM; in test [6] it was 53.2 µM; in test [7] it was 32.4 µM. The TGI in [8] is over 100 µM; in test [9], 39.8 µM; in [10], 98.4 µM.
On to `COC(=O)C1=C(c2ccc3c(c2)OCO3)O[C@H](c2ccc3c(c2)OCO3)[C@H]1COC(C)=O`, for which the TGI is over 100 µM in test [1]; 28.9 µM in test [2]; over 100 µM in test [3]; over 100 µM in test [4]; over 100 µM in test [5]; over 100 µM in test [7]. Besides, the TGI in test [8], in test [9] and in [10] was over 100 µM in each case.
In the case of `O=C1C2=C(CC3C(C2)C3(Br)Br)C(=O)C2=C1CC1C(C2)C1(Br)Br` (stereo unspecified), the TGI in test [1], in test [2], in test [3], in test [4], in test [5] and in [7] was over 100 µM throughout. Moreover, the TGI in test [8], in [9] and in test [10] was over 100 µM throughout.
For `COC(=O)c1cc2c(c(C(=O)OC)c1O)C(=O)C=CC2=O`, the GI50 in [1] is over 9.1 µM; in test [2], over 9.1 µM; in test [3], over 9.1 µM; in test [4] it was over 9.1 µM; in [5], over 100 µM; in [7], over 9.1 µM. The GI50 in test [8] was over 9.1 µM; in test [9], over 100 µM; in [10] it was over 9.1 µM. For the same molecule, the TGI in test [1] was over 56.1 µM; in test [2], > 9.1 µM and 98.8 µM; in test [3], over 56.3 µM; in test [4], over 56.1 µM; in [5], over 100 µM; in test [7], over 58.3 µM. Further, the TGI in test [8] is over 48.7 µM; in test [9], over 100 µM; in test [10], over 58.6 µM.
In the case of `COc1cccc(NCc2nnc(Nc3ccc(Cl)cc3)c3ccccc23)c1`, the GI50 in test [1] was 3.07 µM; in [2] it was 0.492 µM; in [3], 2.52 µM; in [4], 2.22 µM; in [5], 0.708 µM; in test [6] it was 0.739 µM. Moreover, the GI50 is 0.131 µM in [7], 2.04 µM in test [8] and 0.904 µM in test [10]. The TGI in [1] worked out at 6.56 µM; in [2], 4.01 µM; in [3], 10.7 µM; in [4], 7.62 µM; in test [5], 3.98 µM; in [6], 4.38 µM. Further, the TGI in test [7] amounted to 6.52 µM; in test [8], 5.28 µM; in test [10], 6.3 µM.

The values are drawn from PubChem BioAssay (NCI).
